Key:
Assay type in all cases: biochemical
[1] = target: PI3Kδ (p110δ/p85α) (Homo sapiens (Human), UniProt O00329); assay: PI3Kδ Scintillation Proximity Assay (Assay A3); details: column b, Assay A3 (SPA), 20 μM ATP
Outline: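 Human p110δ/p85α (4 nM) with 20 μM diC8-PIP2 and 20 μM ATP plus [γ-33P]ATP, 210 min at room temperature in 20 mM MOPS pH 6.7, 10 mM MgCl2, 5 mM DTT, 0.03% CHAPS, 0.5% DMSO. Product captured on WGA SPA beads in EDTA quench; IC50 from percent-control versus log concentration fit.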

[2] = target: PI3Kγ (Homo sapiens (Human), UniProt P48736); assay: PI3K Enzyme Assay A2 ([γ-33P]ATP filter plate), PI3Kγ; details: Assay A2, 1000 μM ATP
Chain of PI3Kγ (P48736 whole entry, species assumed, canonical isoform): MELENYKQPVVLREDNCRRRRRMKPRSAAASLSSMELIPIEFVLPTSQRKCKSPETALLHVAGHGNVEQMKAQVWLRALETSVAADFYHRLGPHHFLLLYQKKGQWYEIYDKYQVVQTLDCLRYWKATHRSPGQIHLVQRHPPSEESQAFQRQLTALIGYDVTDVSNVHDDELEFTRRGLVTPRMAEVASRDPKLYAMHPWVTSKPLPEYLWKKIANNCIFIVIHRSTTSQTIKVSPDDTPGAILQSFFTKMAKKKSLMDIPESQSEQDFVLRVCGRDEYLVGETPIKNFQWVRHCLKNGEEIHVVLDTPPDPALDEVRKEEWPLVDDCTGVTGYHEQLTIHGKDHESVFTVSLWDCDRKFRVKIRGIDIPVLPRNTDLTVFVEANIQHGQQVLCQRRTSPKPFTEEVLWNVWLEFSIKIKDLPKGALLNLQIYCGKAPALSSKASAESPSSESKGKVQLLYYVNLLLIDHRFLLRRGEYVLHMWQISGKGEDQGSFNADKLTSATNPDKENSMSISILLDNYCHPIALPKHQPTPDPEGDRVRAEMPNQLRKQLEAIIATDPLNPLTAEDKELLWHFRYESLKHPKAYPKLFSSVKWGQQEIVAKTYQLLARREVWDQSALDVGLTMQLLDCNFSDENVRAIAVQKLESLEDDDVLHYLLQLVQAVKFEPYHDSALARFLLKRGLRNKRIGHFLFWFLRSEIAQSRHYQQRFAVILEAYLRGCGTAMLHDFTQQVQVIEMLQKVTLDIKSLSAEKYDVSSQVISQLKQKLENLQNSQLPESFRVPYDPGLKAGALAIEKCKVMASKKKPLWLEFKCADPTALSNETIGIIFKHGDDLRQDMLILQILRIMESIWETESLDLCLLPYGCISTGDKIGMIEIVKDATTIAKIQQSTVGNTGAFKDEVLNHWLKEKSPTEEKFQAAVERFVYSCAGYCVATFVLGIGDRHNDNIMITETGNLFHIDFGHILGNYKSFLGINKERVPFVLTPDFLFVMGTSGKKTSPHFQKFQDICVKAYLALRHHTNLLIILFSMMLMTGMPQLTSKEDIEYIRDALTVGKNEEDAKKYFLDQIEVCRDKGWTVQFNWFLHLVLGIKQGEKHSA
Experimental: Materials: Lipid kinase substrate, phosphoinositol-4,5-bisphosphate (PIP2), was purchased from Echelon Biosciences (Salt Lake City, Utah). PI3K isoforms α, β, δ and γ were purchased from Millipore (Bedford, Mass.). ATP, MgCh, DTT, EDTA, MOPS and CHAPS were purchased from Sigma-Aldrich (St. Louis, Mo.).
(§1) The kinase reaction was conducted in clear-bottom 96-well plate from Thermo Fisher Scientific in a final volume of 24 μL. Inhibitors were first diluted serially in DMSO and added to the plate wells before the addition of other reaction components. The final concentration of DMSO in the assay was 0.5%. The PI3K assays were carried out at room temperature in 20 mM MOPS, pH 6.7, 10 mM MgCl2, 5 mM DTT and CHAPS 0.03%. The reaction mixture was prepared containing 50 μM PIP2, kinase and varying concentration of inhibitors. Reactions were initiated by the addition of ATP containing 2.2 μCi [γ-^33P]ATP to a final concentration of 1000 μM. The final concentration of PI3K isoforms α, β, δ and γ in the assay were 1.3, 9.4, 2.9 and 10.8 nM respectively. Reactions were incubated for 180 min and terminated by the addition of 100 μL of 1 M potassium phosphate pH 8.0, 30 mM EDTA quench buffer. A 100 μL aliquot of the reaction solution was then transferred to 96-well Millipore MultiScreen IP 0.45 μm PVDF filter plate (The filter plate was prewetted with 200 μL 100% ethanol, distilled water, and 1 M potassium phosphate pH 8.0, respectively). The filter plate was aspirated on a Millipore Manifold under vacuum and washed with 18×200 μL wash buffer containing 1 M potassium phosphate pH 8.0 and 1 mM ATP. After drying by aspiration and blotting, the plate was air dried in an incubator at 37° C. overnight. Packard TopCount adapter (Millipore) was then attached to the plate followed with addition of 120 μL Microscint 20 scintillation cocktail (Perkin Elmer) in each well. After the plate sealing, the radioactivity of the product was determined by scintillation counting on Topcount (Perkin-Elmer). IC50 determination was performed by fitting the curve of percent control activity versus the log of the inhibitor concentration using the GraphPad Prism 3.0 software. […] See Table 1 for data related to compounds of the invention.

[3] = target: PI3Kβ (Homo sapiens (Human), UniProt P42338); assay: PI3K Enzyme Assay A2 ([γ-33P]ATP filter plate), PI3Kβ; details: Assay A2, 1000 μM ATP
Chain of PI3Kβ (P42338 whole entry, species assumed, canonical isoform): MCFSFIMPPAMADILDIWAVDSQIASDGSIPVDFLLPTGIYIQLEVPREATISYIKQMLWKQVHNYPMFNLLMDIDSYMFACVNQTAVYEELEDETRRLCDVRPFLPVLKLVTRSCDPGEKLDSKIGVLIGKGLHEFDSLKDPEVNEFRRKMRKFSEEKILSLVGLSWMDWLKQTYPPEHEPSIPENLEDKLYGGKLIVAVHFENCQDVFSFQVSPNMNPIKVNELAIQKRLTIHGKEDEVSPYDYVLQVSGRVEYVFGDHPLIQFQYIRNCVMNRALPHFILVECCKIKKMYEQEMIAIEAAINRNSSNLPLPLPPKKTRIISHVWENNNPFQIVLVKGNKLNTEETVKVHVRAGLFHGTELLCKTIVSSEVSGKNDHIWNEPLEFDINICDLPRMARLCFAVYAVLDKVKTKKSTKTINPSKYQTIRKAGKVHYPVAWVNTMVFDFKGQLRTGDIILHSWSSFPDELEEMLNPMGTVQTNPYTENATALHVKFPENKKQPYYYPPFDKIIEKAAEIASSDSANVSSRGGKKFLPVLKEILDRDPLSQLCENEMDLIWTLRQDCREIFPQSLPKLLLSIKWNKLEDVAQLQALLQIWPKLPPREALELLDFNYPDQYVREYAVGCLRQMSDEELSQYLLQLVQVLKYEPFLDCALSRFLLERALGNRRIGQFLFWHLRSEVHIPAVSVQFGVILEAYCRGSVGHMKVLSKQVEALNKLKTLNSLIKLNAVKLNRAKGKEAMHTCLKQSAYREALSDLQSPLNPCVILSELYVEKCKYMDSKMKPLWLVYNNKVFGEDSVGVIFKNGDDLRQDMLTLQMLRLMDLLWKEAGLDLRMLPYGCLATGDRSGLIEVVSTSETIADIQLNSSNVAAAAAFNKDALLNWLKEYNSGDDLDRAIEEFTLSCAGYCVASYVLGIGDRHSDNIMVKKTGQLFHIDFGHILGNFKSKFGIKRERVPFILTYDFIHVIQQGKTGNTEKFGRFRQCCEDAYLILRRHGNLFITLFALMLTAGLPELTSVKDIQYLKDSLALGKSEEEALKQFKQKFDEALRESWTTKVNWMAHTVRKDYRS
Chain of PI3Kβ (P27986 whole entry partner, species assumed, canonical isoform): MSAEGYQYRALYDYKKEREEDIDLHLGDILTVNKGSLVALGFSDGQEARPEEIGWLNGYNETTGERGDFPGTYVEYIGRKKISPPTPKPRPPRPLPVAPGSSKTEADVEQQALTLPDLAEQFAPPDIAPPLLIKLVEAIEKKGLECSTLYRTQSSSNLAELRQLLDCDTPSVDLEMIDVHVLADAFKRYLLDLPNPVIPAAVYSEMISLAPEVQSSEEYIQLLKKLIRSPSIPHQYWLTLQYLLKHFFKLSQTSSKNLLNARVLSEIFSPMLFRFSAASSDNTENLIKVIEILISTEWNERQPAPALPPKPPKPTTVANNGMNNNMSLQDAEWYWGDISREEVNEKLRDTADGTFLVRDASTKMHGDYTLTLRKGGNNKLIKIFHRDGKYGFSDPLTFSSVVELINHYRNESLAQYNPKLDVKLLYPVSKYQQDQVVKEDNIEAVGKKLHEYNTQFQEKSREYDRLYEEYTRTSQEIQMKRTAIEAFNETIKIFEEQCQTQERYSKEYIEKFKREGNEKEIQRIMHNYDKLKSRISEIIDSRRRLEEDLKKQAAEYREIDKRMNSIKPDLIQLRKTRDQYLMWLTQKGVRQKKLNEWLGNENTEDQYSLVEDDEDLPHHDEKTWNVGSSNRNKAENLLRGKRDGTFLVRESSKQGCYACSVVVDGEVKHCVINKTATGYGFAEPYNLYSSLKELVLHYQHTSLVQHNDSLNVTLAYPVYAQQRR
Experimental: as §1, with “Materials: Lipid kinase substrate, phosphoinositol-4,5-bisphosphate (PIP2), was purchased from Echelon Biosciences (Salt Lake City, Utah). PI3K isoforms α, β, δ and γ were purchased from Millipore (Bedford, Mass.). ATP, MgCh, DTT, EDTA, MOPS and CHAPS were purchased from Sigma-Aldrich (St. Louis, Mo.). The kinase” for “The kinase”, “1000 μM. […] Reactions were” for “1000 μM. The final concentration of PI3K isoforms α, β, δ and γ in the assay were 1.3, 9.4, 2.9 and 10.8 nM respectively. Reactions were”

Chain of PI3Kδ (p110δ/p85α) (O00329 whole entry, species assumed): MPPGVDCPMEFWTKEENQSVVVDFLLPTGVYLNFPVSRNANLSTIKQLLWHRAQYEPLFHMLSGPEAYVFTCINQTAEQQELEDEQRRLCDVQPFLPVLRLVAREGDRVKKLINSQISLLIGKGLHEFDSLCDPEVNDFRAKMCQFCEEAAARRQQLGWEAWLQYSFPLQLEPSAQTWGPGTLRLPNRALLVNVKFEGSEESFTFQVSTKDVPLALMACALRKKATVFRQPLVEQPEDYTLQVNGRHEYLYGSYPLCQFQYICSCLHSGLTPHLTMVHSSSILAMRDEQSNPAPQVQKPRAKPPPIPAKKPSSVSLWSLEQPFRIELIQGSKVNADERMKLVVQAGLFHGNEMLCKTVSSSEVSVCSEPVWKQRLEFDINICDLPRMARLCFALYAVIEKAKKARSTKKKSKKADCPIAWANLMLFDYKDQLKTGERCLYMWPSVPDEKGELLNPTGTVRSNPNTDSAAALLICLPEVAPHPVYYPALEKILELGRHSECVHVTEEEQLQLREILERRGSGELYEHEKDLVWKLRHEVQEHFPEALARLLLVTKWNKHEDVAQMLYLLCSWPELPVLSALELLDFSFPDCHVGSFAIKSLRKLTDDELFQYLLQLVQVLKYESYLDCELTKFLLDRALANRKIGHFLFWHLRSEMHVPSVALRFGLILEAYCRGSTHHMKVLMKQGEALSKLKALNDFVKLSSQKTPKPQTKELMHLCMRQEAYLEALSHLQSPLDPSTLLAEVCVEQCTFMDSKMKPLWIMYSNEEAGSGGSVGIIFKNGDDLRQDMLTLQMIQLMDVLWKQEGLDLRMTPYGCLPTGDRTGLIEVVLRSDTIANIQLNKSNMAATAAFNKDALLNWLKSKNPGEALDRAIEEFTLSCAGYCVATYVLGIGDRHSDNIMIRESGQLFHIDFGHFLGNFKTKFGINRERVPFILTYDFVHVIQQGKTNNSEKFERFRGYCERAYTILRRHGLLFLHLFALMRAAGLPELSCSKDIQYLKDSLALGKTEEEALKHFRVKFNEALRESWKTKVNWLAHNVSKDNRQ
Chain of PI3Kδ (p110δ/p85α) (P27986 whole entry partner, species assumed): as the sequence (P27986 whole entry partner, species assumed, canonical isoform) above

IC50 [1] [nM]	IC50 [2] [nM]	IC50 [3] [nM]	Structure (SMILES)
< 50	100 to 500	> 500	Cc1csc2nc(C(C)Nc3nc(N)nc4[nH]cnc34)c(-c3cc(F)cc(F)c3)c(=O)n12 (stereo not drawn) [Example 13, 7-{1-[(2-amino-9H-purin-6-yl)amino]ethyl}-6-(3,5-difluorophenyl)-3-methyl-5H-[1,3]thiazolo[3,2-a]pyrimidin-5-one]
< 50	100 to 500	> 500	Cc1csc2nc(C(C)Nc3nc(N)nc4[nH]cnc34)c(-c3cccc(F)c3)c(=O)n12 (stereo not drawn) [Example 11, 7-{1-[(2-amino-9H-purin-6-yl)amino]ethyl}-6-(3-fluorophenyl)-3-methyl-5H-[1,3]thiazolo[3,2-a]pyrimidin-5-one]
< 50	50 to 100	> 500	Cc1csc2nc(C(C)Nc3nc(N)nc4[nH]cnc34)c(-c3ccccc3)c(=O)n12 (stereo not drawn) [Example 9, 7-{1-[(2-amino-9H-purin-6-yl)amino]ethyl}-3-methyl-6-phenyl-5H-[1,3]thiazolo[3,2-a]pyrimidin-5-one]

Source: US9975907B2, “Pyrimidinones as PI3K inhibitors” (Incyte Corporation, priority 2009, dated 2018)
